According to ChEMBL document CHEMBL4325853, “Design, synthesis and antibacterial evaluation of 2,4-disubstituted-6-thiophenyl-pyrimidines” (Eur J Med Chem, 2019):

Key:
Type in all cases: functional
Staphylococcus aureus [1] = experiment: Antibacterial activity against methicillin-resistant Staphylococcus aureus isolate 5035 after 18 hrs by broth microdilution method; settings: isolate 5035, 18 h
Staphylococcus aureus [2] = experiment: Antibacterial activity against methicillin-resistant Staphylococcus aureus isolate 8162 after 18 hrs by broth microdilution method; settings: isolate 8162, 18 h
Staphylococcus aureus [3] = experiment: Antibacterial activity against methicillin-resistant Staphylococcus aureus isolate 7916 after 18 hrs by broth microdilution method; settings: isolate 7916, 18 h
Staphylococcus aureus [4] = experiment: Antibacterial activity against methicillin-resistant Staphylococcus aureus isolate 3170 after 18 hrs by broth microdilution method; settings: isolate 3170, 18 h
Staphylococcus aureus [5] = experiment: Antibacterial activity against methicillin-resistant Staphylococcus aureus isolate 7682 after 18 hrs by broth microdilution method; settings: isolate 7682, 18 h
Staphylococcus aureus [6] = experiment: Antibacterial activity against methicillin-resistant Staphylococcus aureus isolate 6334 after 18 hrs by broth microdilution method; settings: isolate 6334, 18 h
Staphylococcus aureus [7] = experiment: Antibacterial activity against methicillin-resistant Staphylococcus aureus isolate 1947 after 18 hrs by broth microdilution method; settings: isolate 1947, 18 h
Staphylococcus aureus [8] = experiment: Antibacterial activity against methicillin-resistant Staphylococcus aureus isolate 6515 after 18 hrs by broth microdilution method; settings: isolate 6515, 18 h
Enterococcus faecalis [9] = experiment: Antibacterial activity against Enterococcus faecalis ATCC 29212 after 18 hrs by broth microdilution method; settings: ATCC 29212, 18 h
Staphylococcus aureus [10] = experiment: Potency index, ratio of berberine MIC to test compound MIC for Staphylococcus aureus ATCC 29213
Staphylococcus aureus [11] = experiment: Potency index, ratio of methicillin MIC to test compound MIC for methicillin-resistant Staphylococcus aureus ATCC BAA41
Staphylococcus aureus [12] = experiment: Antibacterial activity against methicillin-resistant Staphylococcus aureus isolate 7434 after 18 hrs by broth microdilution method; settings: isolate 7434, 18 h
Staphylococcus aureus [13] = experiment: Bactericidal activity against methicillin-resistant Staphylococcus aureus ATCC BAA41 after 18 hrs by broth microdilution method; settings: ATCC BAA41, 18 h
Staphylococcus aureus [14] = experiment: Antibacterial activity against methicillin-resistant Staphylococcus aureus isolate 7971 after 18 hrs by broth microdilution method; settings: isolate 7971, 18 h
Staphylococcus aureus [15] = experiment: Antibacterial activity against methicillin-resistant Staphylococcus aureus ATCC 33592 after 18 hrs by broth microdilution method; settings: ATCC 33592, 18 h
Staphylococcus aureus [16] = experiment: Potency index, ratio of methicillin MIC to test compound MIC for methicillin-resistant Staphylococcus aureus ATCC BAA1720
Staphylococcus aureus [17] = experiment: Antibacterial activity against methicillin-resistant Staphylococcus aureus isolate 3096 after 18 hrs by broth microdilution method; settings: isolate 3096, 18 h
Staphylococcus aureus [18] = experiment: Antibacterial activity against methicillin-resistant Staphylococcus aureus isolate 2158 after 18 hrs by broth microdilution method; settings: isolate 2158, 18 h
Staphylococcus aureus [19] = experiment: Antibacterial activity against methicillin-resistant Staphylococcus aureus isolate 2671 after 18 hrs by broth microdilution method; settings: isolate 2671, 18 h
Staphylococcus aureus [20] = experiment: Antibacterial activity against methicillin-resistant Staphylococcus aureus isolate 8071 after 18 hrs by broth microdilution method; settings: isolate 8071, 18 h
Escherichia coli = experiment: Antibacterial activity against Escherichia coli ATCC 25922 after 18 hrs by broth microdilution method; settings: ATCC 25922, 18 h
Staphylococcus aureus [21] = experiment: Antibacterial activity against methicillin-resistant Staphylococcus aureus isolate 1610 after 18 hrs by broth microdilution method; settings: isolate 1610, 18 h
Staphylococcus aureus [22] = experiment: Antibacterial activity against methicillin-resistant Staphylococcus aureus isolate 4127 after 18 hrs by broth microdilution method; settings: isolate 4127, 18 h
Staphylococcus aureus [23] = experiment: Antibacterial activity against methicillin-resistant Staphylococcus aureus isolate 1651 after 18 hrs by broth microdilution method; settings: isolate 1651, 18 h
Staphylococcus aureus [24] = experiment: Antibacterial activity against methicillin-resistant Staphylococcus aureus isolate 1708 after 18 hrs by broth microdilution method; settings: isolate 1708, 18 h
Staphylococcus aureus [25] = experiment: Antibacterial activity against methicillin-resistant Staphylococcus aureus isolate 7587 after 18 hrs by broth microdilution method; settings: isolate 7587, 18 h
Staphylococcus aureus [26] = experiment: Antibacterial activity against methicillin-resistant Staphylococcus aureus isolate 5426 after 18 hrs by broth microdilution method; settings: isolate 5426, 18 h
Staphylococcus aureus [27] = experiment: Bactericidal activity against methicillin-resistant Staphylococcus aureus ATCC 43300 after 18 hrs by broth microdilution method; settings: ATCC 43300, 18 h
Staphylococcus aureus [28] = experiment: Antibacterial activity against methicillin-resistant Staphylococcus aureus isolate 7960 after 18 hrs by broth microdilution method; settings: isolate 7960, 18 h
[29] = test system: Staphylococcus epidermidis; experiment: Antibacterial activity against Staphylococcus epidermidis ATCC 12228 after 18 hrs by broth microdilution method; settings: ATCC 12228, 18 h
Staphylococcus aureus [30] = experiment: Antibacterial activity against methicillin-resistant Staphylococcus aureus ATCC BAA41 after 18 hrs by broth microdilution method; settings: ATCC BAA41, 18 h
Staphylococcus aureus [31] = experiment: Antibacterial activity against methicillin-resistant Staphylococcus aureus isolate 4023 after 18 hrs by broth microdilution method; settings: isolate 4023, 18 h
Enterococcus faecalis [32] = experiment: Antibacterial activity against vancomycin-resistant Enterococcus faecalis ATCC 700221 after 18 hrs by broth microdilution method; settings: ATCC 700221, 18 h
Staphylococcus aureus [33] = experiment: Antibacterial activity against methicillin-resistant Staphylococcus aureus ATCC 33591 after 18 hrs by broth microdilution method; settings: ATCC 33591, 18 h
Enterococcus faecalis [34] = experiment: Ratio of MBC to MIC for vancomycin-resistant Enterococcus faecalis ATCC 700221
Staphylococcus aureus [35] = experiment: Antibacterial activity against methicillin-resistant Staphylococcus aureus isolate 7536 after 18 hrs by broth microdilution method; settings: isolate 7536, 18 h
Staphylococcus aureus [36] = experiment: Potency index, ratio of methicillin MIC to test compound MIC for methicillin-resistant Staphylococcus aureus ATCC 43300
Staphylococcus aureus [37] = experiment: Antibacterial activity against methicillin-resistant Staphylococcus aureus isolate 7449 after 18 hrs by broth microdilution method; settings: isolate 7449, 18 h
Staphylococcus aureus [38] = experiment: Antibacterial activity against methicillin-resistant Staphylococcus aureus isolate 5395 after 18 hrs by broth microdilution method; settings: isolate 5395, 18 h
Staphylococcus aureus [39] = experiment: Ratio of MBC to MIC for methicillin-resistant Staphylococcus aureus ATCC BAA41
Staphylococcus aureus [40] = experiment: Antibacterial activity against methicillin-resistant Staphylococcus aureus isolate 7943 after 18 hrs by broth microdilution method; settings: isolate 7943, 18 h
Staphylococcus aureus [41] = experiment: Antibacterial activity against methicillin-resistant Staphylococcus aureus isolate 7247 after 18 hrs by broth microdilution method; settings: isolate 7247, 18 h
Staphylococcus aureus [42] = experiment: Antibacterial activity against methicillin-resistant Staphylococcus aureus isolate 7717 after 18 hrs by broth microdilution method; settings: isolate 7717, 18 h
Staphylococcus aureus [43] = experiment: Antibacterial activity against methicillin-resistant Staphylococcus aureus isolate 7972 after 18 hrs by broth microdilution method; settings: isolate 7972, 18 h
Staphylococcus aureus [44] = experiment: Potency index, ratio of methicillin MIC to test compound MIC for methicillin-resistant Staphylococcus aureus ATCC 33591
Staphylococcus aureus [45] = experiment: Antibacterial activity against methicillin-resistant Staphylococcus aureus isolate 8078 after 18 hrs by broth microdilution method; settings: isolate 8078, 18 h
Staphylococcus aureus [46] = experiment: Antibacterial activity against methicillin-resistant Staphylococcus aureus isolate 1428 after 18 hrs by broth microdilution method; settings: isolate 1428, 18 h

FC(F)(F)c1ccc(CN2CCCN(CCc3cc(-c4cccs4)nc(-c4ccncc4)n3)CC2)cc1
128 µg/mL: MIC90 (Escherichia coli)
8 µg/mL: MIC90 (Staphylococcus aureus [4]) | MIC90 (Staphylococcus aureus [5]) | MIC90 (Staphylococcus aureus [12]) | MIC90 (Staphylococcus aureus [21]) | MIC90 (Staphylococcus aureus [23]) | MIC90 (Staphylococcus aureus [24]) | MIC90 (Staphylococcus aureus [26]) | MBC (Staphylococcus aureus [27])
>100: Ratio (Staphylococcus aureus [11]) | Ratio (Staphylococcus aureus [16]) | Ratio (Staphylococcus aureus [36]) | Ratio (Staphylococcus aureus [44])
50 - 100: Ratio (Staphylococcus aureus [10])
4 µg/mL: MIC90 (Staphylococcus aureus [1]) | MIC90 (Staphylococcus aureus [2]) | MIC90 (Staphylococcus aureus [3]) | MIC90 (Staphylococcus aureus [6]) | MIC90 (Staphylococcus aureus [7]) | MIC90 (Staphylococcus aureus [8]) | MIC90 (Enterococcus faecalis [9]) | MBC (Staphylococcus aureus [13]) | MIC90 (Staphylococcus aureus [14]) | MIC90 (Staphylococcus aureus [15]) | MIC90 (Staphylococcus aureus [17]) | MIC90 (Staphylococcus aureus [18]) | MIC90 (Staphylococcus aureus [19]) | MIC90 (Staphylococcus aureus [20]) | MIC90 (Staphylococcus aureus [22]) | MIC90 (Staphylococcus aureus [25]) | MIC90 (Staphylococcus aureus [28]) | MIC90 [29] | MIC90 (Staphylococcus aureus [30]) | MIC90 (Staphylococcus aureus [31]) | MIC90 (Enterococcus faecalis [32]) | MIC90 (Staphylococcus aureus [33]) | MIC90 (Staphylococcus aureus [35]) | MIC90 (Staphylococcus aureus [37]) | MIC90 (Staphylococcus aureus [38]) | MIC90 (Staphylococcus aureus [40]) | MIC90 (Staphylococcus aureus [41]) | MIC90 (Staphylococcus aureus [42]) | MIC90 (Staphylococcus aureus [43]) | MIC90 (Staphylococcus aureus [45]) | MIC90 (Staphylococcus aureus [46])
2: Ratio (Enterococcus faecalis [34])
1: Ratio (Staphylococcus aureus [39])

CC(C)c1ccc(CN2CCCN(CCc3cc(-c4cccs4)nc(-c4ccncc4)n3)CC2)cc1
1: Ratio (Staphylococcus aureus [39])
2: Ratio (Enterococcus faecalis [34])
4 µg/mL: MIC90 (Staphylococcus aureus [5]) | MIC90 (Staphylococcus aureus [21]) | MBC (Staphylococcus aureus [27])
128 µg/mL: MIC90 (Escherichia coli)
50 - 100: Ratio (Staphylococcus aureus [10])
>100: Ratio (Staphylococcus aureus [11]) | Ratio (Staphylococcus aureus [16]) | Ratio (Staphylococcus aureus [36]) | Ratio (Staphylococcus aureus [44])
2 µg/mL: MIC90 (Staphylococcus aureus [1]) | MIC90 (Staphylococcus aureus [2]) | MIC90 (Staphylococcus aureus [3]) | MIC90 (Staphylococcus aureus [4]) | MIC90 (Staphylococcus aureus [6]) | MIC90 (Staphylococcus aureus [7]) | MIC90 (Staphylococcus aureus [8]) | MIC90 (Enterococcus faecalis [9]) | MIC90 (Staphylococcus aureus [12]) | MBC (Staphylococcus aureus [13]) | MIC90 (Staphylococcus aureus [14]) | MIC90 (Staphylococcus aureus [15]) | MIC90 (Staphylococcus aureus [17]) | MIC90 (Staphylococcus aureus [18]) | MIC90 (Staphylococcus aureus [19]) | MIC90 (Staphylococcus aureus [20]) | MIC90 (Staphylococcus aureus [22]) | MIC90 (Staphylococcus aureus [23]) | MIC90 (Staphylococcus aureus [24]) | MIC90 (Staphylococcus aureus [25]) | MIC90 (Staphylococcus aureus [26]) | MIC90 (Staphylococcus aureus [28]) | MIC90 [29] | MIC90 (Staphylococcus aureus [30]) | MIC90 (Staphylococcus aureus [31]) | MIC90 (Enterococcus faecalis [32]) | MIC90 (Staphylococcus aureus [33]) | MIC90 (Staphylococcus aureus [35]) | MIC90 (Staphylococcus aureus [37]) | MIC90 (Staphylococcus aureus [38]) | MIC90 (Staphylococcus aureus [40]) | MIC90 (Staphylococcus aureus [41]) | MIC90 (Staphylococcus aureus [42]) | MIC90 (Staphylococcus aureus [43]) | MIC90 (Staphylococcus aureus [45]) | MIC90 (Staphylococcus aureus [46])
